Experimental data from ChEMBL document CHEMBL4665836, “Overcoming β-Lactam resistance in Pseudomonas aeruginosa using non-canonical tobramycin-based antibiotic adjuvants” (2020).
≈ marks a conversion by molar mass, not a printed value.

Columns and labels:
Assay type in all cases: functional
Pseudomonas aeruginosa [1] = test: Potentiation of aztreonam-induced antibacterial activity against carbapenem-resistant Pseudomonas aeruginosa 107092 clinical isolate assessed as fold reduction in aztreonam MIC at 8 uM
Pseudomonas aeruginosa [2] = test: Potentiation of ceftazidime-induced antibacterial activity against carbapenem-resistant Pseudomonas aeruginosa 88949 clinical isolate assessed as fold reduction in ceftazidime MIC at 8 uM
Pseudomonas aeruginosa [3] = test: Potentiation of aztreonam-induced antibacterial activity against carbapenem-resistant Pseudomonas aeruginosa 108590 clinical isolate assessed as fold reduction in aztreonam MIC at 8 uM
Pseudomonas aeruginosa [4] = test: Potentiation of aztreonam-induced antibacterial activity against carbapenem-resistant Pseudomonas aeruginosa 86052 clinical isolate assessed as fold reduction in aztreonam MIC at 8 uM
Pseudomonas aeruginosa [5] = test: Potentiation of ceftazidime-induced antibacterial activity against carbapenem-resistant Pseudomonas aeruginosa 108590 clinical isolate assessed as fold reduction in ceftazidime MIC at 8 uM
Pseudomonas aeruginosa [6] = test: Potentiation of aztreonam-induced antibacterial activity against carbapenem-resistant Pseudomonas aeruginosa 109084 clinical isolate assessed as fold reduction in aztreonam MIC at 8 uM
Pseudomonas aeruginosa [7] = test: Potentiation of ceftazidime-induced antibacterial activity against carbapenem-resistant Pseudomonas aeruginosa 109084 clinical isolate assessed as fold reduction in ceftazidime MIC at 8 uM
Pseudomonas aeruginosa [8] = test: Potentiation of ceftazidime-induced antibacterial activity against carbapenem-resistant Pseudomonas aeruginosa 86052 clinical isolate assessed as fold reduction in ceftazidime MIC at 8 uM
Pseudomonas aeruginosa [9] = test: Potentiation of aztreonam-induced antibacterial activity against carbapenem-resistant Pseudomonas aeruginosa 88949 clinical isolate assessed as fold reduction in aztreonam MIC at 8 uM
Pseudomonas aeruginosa [10] = test: Potentiation of ceftazidime-induced antibacterial activity against carbapenem-resistant Pseudomonas aeruginosa 107092 clinical isolate assessed as fold reduction in ceftazidime MIC at 8 uM
Pseudomonas aeruginosa [11] = test: Potentiation of imipenem-induced antibacterial activity against carbapenem-resistant Pseudomonas aeruginosa 108590 clinical isolate assessed as fold reduction in imipenem MIC at 8 uM
Pseudomonas aeruginosa [12] = test: Potentiation of imipenem-induced antibacterial activity against carbapenem-resistant Pseudomonas aeruginosa 86052 clinical isolate assessed as fold reduction in imipenem MIC at 8 uM
Pseudomonas aeruginosa [13] = test: Potentiation of imipenem-induced antibacterial activity against carbapenem-resistant Pseudomonas aeruginosa 109084 clinical isolate assessed as fold reduction in imipenem MIC at 8 uM
Pseudomonas aeruginosa [14] = test: Potentiation of imipenem-induced antibacterial activity against carbapenem-resistant Pseudomonas aeruginosa 88949 clinical isolate assessed as fold reduction in imipenem MIC at 8 uM
Pseudomonas aeruginosa [15] = test: Potentiation of imipenem-induced antibacterial activity against carbapenem-resistant Pseudomonas aeruginosa 107092 clinical isolate assessed as fold reduction in imipenem MIC at 8 uM
Pseudomonas aeruginosa [16] = test: Antibacterial activity against Pseudomonas aeruginosa PAO750 harboring mexAB-oprM/mexCD-oprJ/mexEF-oprN/mexJK/mexXY/opmH efflux deficient mutant
Pseudomonas aeruginosa [17] = test: Antibacterial activity against Pseudomonas aeruginosa PAO200 harboring mexAB-oprM efflux deficient mutant
Pseudomonas aeruginosa [18] = test: Antibacterial activity against wild type Pseudomonas aeruginosa PAO1

## NC(=O)[C@@H]1CC[C@@H]2CN1C(=O)N2OS(=O)(=O)O [AVIBACTAM]
Pseudomonas aeruginosa [1]
  fold change (FC): 2
Pseudomonas aeruginosa [2]
  fold change (FC): 2
Pseudomonas aeruginosa [3]
  fold change (FC): 2
Pseudomonas aeruginosa [4]
  fold change (FC): 2
Pseudomonas aeruginosa [5]
  fold change (FC): 2
Pseudomonas aeruginosa [6]
  fold change (FC): 2
Pseudomonas aeruginosa [7]
  fold change (FC): 2
Pseudomonas aeruginosa [8]
  fold change (FC): 2
Pseudomonas aeruginosa [9]
  fold change (FC): 2
Pseudomonas aeruginosa [10]
  fold change (FC): 2

## O.O=C(NC1CCNCC1)[C@@H]1CC[C@@H]2CN1C(=O)N2OS(=O)(=O)O [RELEBACTAM]
Pseudomonas aeruginosa [11]
  fold change (FC): 2
Pseudomonas aeruginosa [12]
  fold change (FC): 2
Pseudomonas aeruginosa [13]
  fold change (FC): 2
Pseudomonas aeruginosa [14]
  fold change (FC): 2
Pseudomonas aeruginosa [15]
  fold change (FC): 2

## NC[C@H]1O[C@H](O[C@H]2[C@H](O)[C@@H](O[C@H]3O[C@H](CO)[C@@H](O)[C@H](N)[C@H]3O)[C@H](N)C[C@@H]2N)[C@H](N)C[C@@H]1O [TOBRAMYCIN]
Pseudomonas aeruginosa [16]
  MIC: 1 µg/mL (≈ 2.14 µM)
Pseudomonas aeruginosa [17]
  MIC: 1 µg/mL (≈ 2.14 µM)
Pseudomonas aeruginosa [18]
  MIC: 1 µg/mL (≈ 2.14 µM)

## O=C(O)c1cn(C2CC2)c2cc(N3CCNCC3)c(F)cc2c1=O [CIPROFLOXACIN]
Pseudomonas aeruginosa [16]
  MIC: 0.0078 µg/mL (≈ 0.0235 µM)
Pseudomonas aeruginosa [17]
  MIC: 0.0156 µg/mL (≈ 0.0471 µM)
